Data set [1] relates to recurrent platinum-resistant OC. As to conditions: patients with recurrent platinum-resistant OC; cited from earlier work.
Data set [2] deals with OVC45 and OVC33 ovarian cancer patient derived 3D spheroids. In words: 3D spheroid drug response assay (CellTiter-Glo 3D, imaging). The format is cell-based, human. On the procedure: Live OC tissue was received within 24 hours of surgery and dissociated to single cells via mechanical and enzymatic digestion. Cells were then cryopreserved until ready for use. 3D spheroids were generated as previously described. Briefly, cells were seeded in KIYA-PREDICT™ media (KIYATEC, Inc., South Carolina, USA) in 384-well round bottom, ultra-low attachment plates (Corning Inc., New York, USA) and centrifuged at 500×g for five minutes then placed in a 37° C. incubator at 5% CO2.
Given the prevalence of drug resistance and altered drug penetration for 3D cultures, drug concentrations for single dose experiments were in the micromolar or microgram per milliliter range for testing. […] Viability was determined 48 hours later. For durvalumab (Selleckchem, Texas, USA) and olaparib combination studies, spheroids were treated with olaparib for 48 hours, followed by durvalumab for an additional 72 hours. […] T-cells were then added to the bulk cells and seeded for 3D spheroid culture. Viability was determined 48 hours later. Viability read outs were conducted using CellTiter-Glo® 3D Cell Viability Assay (Promega, Wisconsin, USA) and relative luminescence units (RLUs) were recorded using a TECAN infinite M1000pro (Mannedorf, Switzerland).
Statistical analysis was performed using GraphPad Prism software version 8.2.1. Results are expressed as the mean±standard deviation (SD). Unpaired t tests were used to determine significance between two groups. Unpaired One-way ANOVA with multiple comparisons was used to determine significance across three or more groups. Combenefit software generated concentration responses and Loewe synergy indices from calculated percent viability normalized to vehicle control.
On the technique in general: Cellular ATP, detected with luciferase, serves as a proxy for viable cell number.

For data set [3] the following is noted: cited from earlier work; for half-life: in vivo.
The test system of data set [4] is melanoma cell line with tumor infiltrating lymphocytes. In words: Image based assay of tumor and T-cell interactions in 3D spheroids. As to conditions: 1:3 E:T, up to 72 hours, drug alone. The method, then:
Referring to FIGS. 25A-H, a summary of an image-based assay for measuring tumor and T-cell interactions for I/O applications is shown. FIG. 25(A) illustrates representative images of a melanoma cell line (Green) and tumor infiltrating lymphocytes (Red) at a 1:3 Effector:Target cell ratio (E:T) cultured as 3D spheroids at 72 hours, Scale bar=200 μm. Groups were treated with immunomodulators (Activator=CD3/CD28 antibody, Durva=Durvalumab) and analyzed every 24 hours for 72 hours (FIGS. 25F-25H). Total red or green fluorescence was measured for T-cells (FIGS. 25B and 25C) and tumor cells (FIG. 25F) using an algorithm developed in Celleste Image Analysis software. Imaging based metrics were compared to conventional methods for assessing cell viability, CellTiter-Glo® (FIGS. 25D and 25G) and flow cytometry (FIGS. 25E and 25H). An increase in T-cell viability in all treatment groups was observed compared to no treatment when cultured with tumor cells (D). Total green fluorescence signal (F) was an acceptable indicator of T-cell induced cytotoxicity when compared to CellTiter-Glo® (FIG. 25G). The use of flow cytometry as a metric for T-cell induced cytotoxicity appears to not be as sensitive at earlier timepoints (24 hrs) as at later timepoints (72 hours). […] Two-Way ANOVA, error bars reflect SD. *p<0.05, **p<0.01, ***p<0.001.

For the next data set, the system named is GEN26 tumor spheroids. Description: Tumor spheroid death assay (CellTiter-Glo 3D). Format: cell-based, human. As to conditions: 24 hours. The method, then:
Tumor spheroid death assay. […] After a 1 hour incubation at 37 C 5% CO2, plates were centrifuged for 5 minutes at 500×g. Tumor spheroids were allowed to form overnight. After 24 or 72 hours, CellTiter-Glo® 3D Cell Viability Assay (Promega G9683) was used according to manufacturer's recommendations and relative luminescence units (RLUs) were recorded using a TEGAN infinite M1000pro (Mannedorf, Switzerland). RLUs were graphed using GraphPad Prism.

Data set [5] deals with CD3+ T cells infiltrating matched melanoma microtumors. Description: Detection of T cell infiltration in microtumor model. Format: cell-based, human. The method, then: Detection of T cell infiltration. T cells were stained with the fluorescent stain PKH (Sigma PKH26GL-1KT) according to manufacturer's recommendations. On the same day, T cells and tumor cells were seeded in EV3D media and Matrigel (Corning 356234) in scaffolds. Scaffolds were incubated for 1 hour at 37° C. and 5% CO2 then 200 μl of EV3D media was added to each scaffold well. After an additional hour, T cell scaffolds were placed on top of tumor cell scaffolds (microtumors). Media was changed every one or two days. Viability was determined for T cell scaffolds and microtumors after one week using PrestoBlue™ Cell Viability Reagent (Invitrogen A13262). Microtumors were washed in PBS, then harvested using Liberase DH (Sigma LIBDH− RO) in serum-free media while rotating at 37° C. 5% CO2. Harvested cells were then analyzed for PKH (PE channel), and CD3 using flow cytometry. Unstained T cells were used to define PKH+ gates.

The test system of data set [6] is GM-CSF, IFNγ, Granzyme B, MIP-1α, MIP-1β, TNFα secretion. Description: Detection of analyte secretion in microtumor model (Milliplex). The format is cell-based, human. On the procedure:
Detection of Analyte Secretion. Individual beads (GM-CSF, IFNγ, Granzyme B, MIP-1α, MIP-1β, TNFα) were purchased from the Milliplex™ MAP Human CD8+ T cell Magnetic Bead Panel 96-well Plate Assay (EMO Millipore HCD8MAG-15K). Supernatant was collected at day seven of microtumor viability assays and stored at −80° C. Samples were processed according to manufacturer's recommendations and the assay plate was run on the BIORAD Luminex® BioPLEX200™ System (Hercules, Calif.). Analyte concentration was determined by interpolation of assay standards using GraphPad Prism.

Data set [7] deals with melanoma microtumors co-cultured with stacked T cell compartment. Description: Microtumor viability assay (PrestoBlue growth rate). The format is cell-based, human. The method, then: PrestoBlue viability assays. PrestoBlue™ Cell Viability Reagent (Invitrogen A13262) was diluted 1:10 in EV3D media. Each T cell scaffold or microtumor was placed in 250 μl of diluted PrestoBlue reagent in a 96-well plate and allowed to incubate for 2 hours at 37° C. 5% CO2. Scaffolds and microtumors were then placed in fresh media and duplicates of 100 μl per PrestoBlue sample was pipetted into a black walled 96-well plate and read on a TECAN infinite M1000pro (Mannedorf, Switzerland) at an excitation of 560 nm and an emission 590 nm with a gain of 60. Absorbance measurements from scaffolds with no cells were subtracted from each sample and relative fluorescent units (RFU) were graphed using GraphPad Prism.
Microtumor viability assay. T cells and tumor cells were seeded in EV3D media and Matrigel (Corning 356234) with collagen (Corning 354236) in scaffolds. […] Scaffolds were incubated for 1 hour at 37° C. and 5% CO2 then 200 μl of EV3D media was added to each scaffold. After an additional hour, T cell scaffolds were placed on top of tumor cell scaffolds (microtumors) or microtumors were cultured in the absence of a stacked T cell scaffold. Media was changed every one to two days. Supernatant from day seven was collected and stored at −80° C. for analyte analysis. Viability was determined for T cell scaffolds and microtumors after 24 hours (day one) and at day seven using PrestoBlue™ Cell Viability Reagent (Invitrogen A13262). PrestoBlue absorbance readings (RFUs) for day one were subtracted from day seven to determine microtumor growth rates.

Data set [8] deals with T cells stimulated with matched melanoma tumor spheroids. In words: Tumor spheroid assay to assess T cell responses (flow cytometry). Format: cell-based, human. The method, then: Tumor spheroid assay to assess T cell responses. Expanded T cells were cultured in the absence of activation components (EV3D media) for 72 hours prior to tumor spheroid assay. […] After a 1 hour incubation, plates were centrifuged for 5 minutes at 500×g. Patient samples were then cultured for 24 hours, and wells were then harvested for flow cytometric analysis.
Flow cytometry. Cells were harvested from 384-well plates following tumor spheroid assays or dissociated from scaffolds and resuspended in 100 μl FACS buffer (2% FBS, 2 mM EDTA, 0.05% sodium azide in PBS). […] Samples were then analyzed using the CytoFLEX LX flow cytometer and software (Beckman Coulter, Brea, Calif.). Percent of parent was then graphed and evaluated for statistics using GraphPad Prism.
(In general: A flow cytometer gives signals particle by particle.)

Where two headings read alike, the source gives them in different places.

Consider `NC(=O)c1cccc2cn(-c3ccc([C@@H]4CCCNC4)cc3)nc12` [niraparib], for which the “complete or partial responses, share of patients” value in data set [1] was less than 5%.
Regarding `O=C(c1cc(Cc2n[nH]c(=O)c3ccccc23)ccc1F)N1CCN(C(=O)C2CC2)CC1` [olaparib], the spheroid appearance result in data set [2] (OVC33, 48 hours, images) was “less dense with less cell contact”. The “spheroid viability, relative sensitivity of samples” value in [2] (olaparib alone, 50 μM (OVC33) or 100 μM (OVC45), 48 hours) is recorded as “OVC33 was more sensitive to olaparib alone compared to OVC45”; in data set [2] (single agent olaparib dose-response, sequential dosing study), “OVC33 remained more sensitive to single agent olaparib than OVC45”.
For durvalumab, the spheroid viability entry in data set [2] (durvalumab alone, dose-response, OVC45 and OVC33) is given as “did not result in a dose-dependent reduction in spheroid viability”. The half-life entry in data set [3] (human) was “high”. Further, the “predicted achievable serum concentration levels” value in data set [3] (twice weekly intravenous dosing regimen) is “greater than 10 μg/mL”. In addition, the T-cell induced cytotoxicity result in data set [4] is “did not cause significant T-cell induced cytotoxicity”.
As for pembrolizumab, the tumor spheroid viability result was “slight decrease in viability” in the data set with GEN26 tumor spheroids (GEN26 tumor spheroids alone, 100 μg/ml, vs no treatment) and “greatest reduction in tumor spheroid viability” in the data set with GEN26 tumor spheroids (GEN26 tumor spheroids co-cultured with T cells, ratio 1:5, 100 μg/ml). The spheroid viability result in data set [2] (OVC33, T-cells incubated with 300 μg/mL pembrolizumab before 3D incorporation, 48 hours) is given as “significant reduction in spheroid viability”; in [2] (OVC45 and OVC33, 100 μg/mL pembrolizumab alone, 48 hours), “decrease in spheroid viability with pembrolizumab treatment alone was not detected for both samples”. Besides, the half-life result in [3] is reported as “approximately 27 days”. Further, in data set [3] (intravenous 10 mg/kg once every two weeks, advanced solid tumor cancer patients), the “predicted maximum serum concentration” value was “approximately 200 μg/mL”. Further, the “infiltration of CD3+ T cells” value is “decrease was observed” in [5] (GEN19 and GEN20, with vs without treatment); “increase in infiltration of CD3+ T cells” in data set [5] (GEN21 and GEN26, with vs without treatment). The “granzyme B secretion” value in data set [6] (GEN19, day 7, 100 μg/ml) was “greatest increase”. The analyte secretion entry in data set [6] (GEN19 and GEN26, day 7, 100 μg/ml, vs no treatment) was “increase in nearly all analytes tested”; in data set [6] (GEN20, day 7, 100 μg/ml) it was “reduction of all tested analytes”; in [6] (GEN21, day 7, 100 μg/ml), “increase in GM-CSF and moderate or no change for other tested analytes”. Also, the microtumor growth rate entry in data set [7] (GEN19 and GEN26, 100 μg/ml, day 1 to day 7, vs untreated) is given as “reduced microtumor growth rates compared to untreated”; in [7] (GEN20 or GEN21, 100 μg/ml, day 1 to day 7, vs no treatment), “did not detect a difference in microtumor growth rates”. For the same molecule, the overall microtumor viability entry in data set [7] (GEN26, 100 μg/ml, vs untreated microtumors) is recorded as “reduction in overall microtumor viability”. In addition, the “PrestoBlue RFU readings” value in [7] (day one to day seven, GEN19, GEN26, GEN20, GEN21) was “altered the RFU readings over the 7 day period for GEN19 and GEN26 more significantly than GEN20 and GEN21”. Moreover, in data set [8] (GEN25, data not shown), the “CD3+/PD-1−/CD69+ population (T cell activation)” value is “did not display an increase”. Besides, the “CD3+/PD-1−/CD69+ levels (T cell activation)” value in [8] (three patients (GEN19, GEN21, GEN26), tumor spheroids + 100 μg/ml pembrolizumab vs T cells with or without spheroids) is “significant increase”.

These data come from patent US20230042929A1, “Methods of Screening to Determine Effective Dosing of Cancer Therapeutics” (Kiyatec, Inc., priority 2019, published 2023).
